Data on 23 compounds can be found in patent US20190292167A1, “HETEROAROMATIC COMPOUNDS USEFUL FOR THE TREATMENT OF PROLIFERATIVE DISEASES” (Syros Pharmaceuticals, Inc., priority 2013, published 2019).

The target of test [1] is T1, CDK7 (Homo sapiens, UniProt P50613).
T1 construct: purchased Life Technologies (Adapta kinase assay service)
In words: Adapta kinase assay (Life Technologies) against CDK7, co-factors cyclin H and MNAT1. The test is classed as biochemical. Particulars: read-out: CDK7 Inhibition. The procedure: Compounds of the invention were assayed for activity against CDK7 at Life Technologies™ (Grand Island, N.Y.) using their commercially available Adapta® kinase assay services. […] Details of the assay, including the substrate used for CDK7 kinase, are available on the Life Technologies web site (http://www.lifetechnologies.com/us/en/homellife-science/drug-discovery/target-and-lead-identification-and-validation/kinasebiology/kinase-activity-assays.html).
The co-factors used for the assay were cyclin H and MNAT1.

Test [2] deals with Jurkat. In words: Inhibition of cell proliferation, CellTiter-Glo, 72 hour. The test is classed as cell-based. Particulars: read-out: Inhibition of Proliferation of Jurkat Cells. Here is the method:
The following cancer cell lines were tested with the media conditions indicated: […]

Where [3] appears, read: Homo sapiens, Jurkat, 72 h, Blood cancer cell line, 72 hour.
[4] abbreviates: Blood cancer cell line, 72 hour.

Counter-ions that a name gives are not always drawn. Like-named read-outs stand apart in the source and are kept apart here. Some results are limits rather than exact numbers.

T1 sequence (P50613 whole entry): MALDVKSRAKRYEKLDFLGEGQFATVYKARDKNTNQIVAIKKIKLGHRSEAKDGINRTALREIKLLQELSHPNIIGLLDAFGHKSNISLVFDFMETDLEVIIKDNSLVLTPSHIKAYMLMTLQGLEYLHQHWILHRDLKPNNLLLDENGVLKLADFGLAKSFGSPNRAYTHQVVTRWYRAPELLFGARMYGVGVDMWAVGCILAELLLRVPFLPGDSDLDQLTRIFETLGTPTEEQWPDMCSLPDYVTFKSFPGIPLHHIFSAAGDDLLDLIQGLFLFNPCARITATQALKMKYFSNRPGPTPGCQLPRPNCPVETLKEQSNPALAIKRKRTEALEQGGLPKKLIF
T1 sequence (P51946 whole entry partner): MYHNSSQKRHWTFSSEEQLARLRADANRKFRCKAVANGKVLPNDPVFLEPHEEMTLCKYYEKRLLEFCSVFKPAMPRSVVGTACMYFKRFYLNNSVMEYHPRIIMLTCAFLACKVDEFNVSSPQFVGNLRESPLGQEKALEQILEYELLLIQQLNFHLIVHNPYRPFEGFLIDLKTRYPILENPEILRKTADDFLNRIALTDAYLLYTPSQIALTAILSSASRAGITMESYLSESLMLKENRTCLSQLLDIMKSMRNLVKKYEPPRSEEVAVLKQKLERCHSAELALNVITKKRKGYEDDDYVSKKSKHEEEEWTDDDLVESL
T1 sequence (P51948 whole entry partner): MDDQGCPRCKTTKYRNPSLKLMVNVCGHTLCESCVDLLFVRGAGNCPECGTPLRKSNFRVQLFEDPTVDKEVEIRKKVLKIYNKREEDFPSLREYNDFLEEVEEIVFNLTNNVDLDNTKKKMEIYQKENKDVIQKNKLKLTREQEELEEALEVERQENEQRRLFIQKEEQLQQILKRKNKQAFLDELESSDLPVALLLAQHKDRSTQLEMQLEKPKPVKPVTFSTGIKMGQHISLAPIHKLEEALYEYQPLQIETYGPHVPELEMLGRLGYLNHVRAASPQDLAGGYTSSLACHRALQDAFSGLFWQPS

In the case of `Cc1[nH]c2ccccc2c1-c1nc(NC2CCN(C(=O)c3ccc(NC(=O)/C=C/CN(C)C)cc3)CC2)ncc1Cl` [Compound 125, (E)-N-(4-(4-((5-chloro-4-(2-methyl-1H-indol-3-yl)pyrimidin-2-yl)amino)piperidine-1-carbonyl)phenyl)-4-(dimethylamino)but-2-enamide], the IC50 was under 100 nM in test [1] and under 500 nM in test [2] (setting [3]).
The corresponding values for `CN(C)C/C=C/C(=O)Nc1ccc(C(=O)N2CCC(Nc3ncc(Cl)c(-c4c[nH]c5ccccc45)n3)CC2)cc1F` [Compound 112, (E)-N-(4-(4-(5-chloro-4-(1H-indol-3-yl)pyrimidin-2-ylamino)piperidine-1-carbonyl)-2-fluorophenyl)-4-(dimethylamino)but-2-enamide] are under 100 nM and under 500 nM.
On to `C=CC(=O)Nc1ccc(CNC(=O)[C@@H]2CNC[C@H](Nc3ncc(Cl)c(-c4c[nH]c5ccccc45)n3)C2)cc1` (relative stereo) [Compound 152, (+/−cis)-N-(4-acrylamidobenzyl)-5-((5-chloro-4-(1H-indol-3-yl)pyrimidin-2-yl)amino)piperidine-3-carboxamide], for which the values for the IC50 in test [1] and in test [2] (setting [4]) were under 100 nM and 500 to 5000 nM, respectively.
For `C=CC(=O)Nc1ccc(CNC(=O)[C@H]2C[C@H](Nc3ncc(Cl)c(-c4c[nH]c5ccccc45)n3)CN(C)C2)cc1` (relative stereo) [Compound 155, (+/−trans)-N-(4-acrylamidobenzyl)-5-((5-chloro-4-(1H-indol-3-yl)pyrimidin-2-yl)amino)-1-methylpiperidine-3-carboxamide] the same measures were 100 to 1000 nM and 500 to 5000 nM.
`CN(C)C/C=C/C(=O)Nc1ccc(C(=O)N2[C@@H]3CC[C@H]2C[C@@H](Nc2ncc(Cl)c(-c4c[nH]c5ccccc45)n2)C3)cc1` [Compound 116, ((1R,3R,5S)-3-(5-chloro-4-(1H-indol-3-yl)pyrimidin-2-ylamino)-8-aza-bicyclo[3.2.1]octan-8-yl)(4-((E)-N-4-(dimethylamino)but-2-enamide)phenyl)methanone]: the IC50 was 100 to 1000 nM in test [1] and 500 to 5000 nM in test [2] (setting [3]).
Regarding `Nc1ccc(C(=O)N2CCC(Nc3ncc(Cl)c(-c4c[nH]c5ccccc45)n3)CC2)c(F)c1` [Compound 67, (4-amino-2-fluorophenyl)(4-(5-chloro-4-(1H-indol-3-yl)pyrimidin-2-ylamino)piperidin-1-yl)methanone], the IC50 in test [1] was in the range of 100 to 1000 nM; in test [2] (setting [3]) it was 500 to 5000 nM.
For `Nc1ccc(C(=O)N2CCC(Nc3ncc(Cl)c(-c4c[nH]c5ccccc45)n3)CC2)cc1F` [Compound 55, (4-amino-3-fluorophenyl)(4-(5-chloro-4-(1H-indol-3-yl)pyrimidin-2-ylamino)piperidin-1-yl)methanone] the same measures were under 100 nM and 500 to 5000 nM.
For `COc1ccc(Cn2c(-c3ccc(NC(=O)/C=C/CN(C)C)cc3)nc3cc(Nc4ncc(Cl)c(-c5c[nH]c6ccccc56)n4)ccc32)cc1` [Compound 133, (E)-N-(4-(5-(5-chloro-4-(1H-indol-3-yl)pyrimidin-2-ylamino)-1-(4-methoxybenzyl)-1H-benzo[d]imidazol-2-yl)phenyl)-4-(dimethylamino)but-2-enamide] the same measures were 100 to 1000 nM and 500 to 5000 nM.
For the compound `CN(C)CC=CC(=O)Nc1ccc(C(=O)NC2CNCC(Nc3ncc(Cl)c(-c4c[nH]c5ccccc45)n3)C2)cc1` (racemic) [Compound 150, N-((+/−trans)-5-((5-chloro-4-(1H-indol-3-yl)pyrimidin-2-yl)amino)piperidin-3-yl)-4-((E)-4-(dimethylamino)but-2-enamido)benzamide], the figures for the IC50 in test [1] and in test [2] (setting [4]) were under 100 nM and under 500 nM, respectively.
`Cc1noc(C)c1-c1nc(NC2CCN(C(=O)c3ccc(NC(=O)/C=C/CN(C)C)cc3)CC2)ncc1Cl` [Compound 121, (E)-N-(4-(4-((5-chloro-4-(3,5-dimethylisoxazol-4-yl)pyrimidin-2-yl)amino)piperidine-1-carbonyl)phenyl)-4-(dimethylamino)but-2-enamide]: the IC50 in test [1] is over 1000 nM; in test [2] (setting [3]), 500 to 5000 nM.
With `Cc1cc(NC(=O)/C=C/CN(C)C)ccc1C(=O)N1CCC(Nc2ncc(Cl)c(-c3c[nH]c4ccccc34)n2)CC1` [Compound 114, (E)-N-(4-(4-(5-chloro-4-(1H-indol-3-yl)pyrimidin-2-ylamino)piperidine-1-carbonyl)-3-methylphenyl)-4-(dimethylamino)but-2-enamide], the results for the IC50 in test [1] and in test [2] (setting [3]) were under 100 nM and under 500 nM, respectively.
For `Cc1cc(N)ccc1C(=O)N1CCC(Nc2ncc(Cl)c(-c3c[nH]c4ccccc34)n2)CC1` [Compound 63, (4-amino-2-methylphenyl)(4-(5-chloro-4-(1H-indol-3-yl)pyrimidin-2-ylamino)piperidin-1-yl)methanone] the same measures were 100 to 1000 nM and over 5000 nM.
As for `N#Cc1cnc(N[C@@H]2CCN(C(=O)c3ccc(NC(=O)/C=C/CN4CCCC4)cc3)C2)nc1-c1c[nH]c2ccccc12` [Compound 108, (E)-N-(4-((R)-3-(5-cyano-4-(1H-indol-3-yl)pyrimidin-2-ylamino)pyrrolidine-1-carbonyl)phenyl)-4-(pyrrolidin-1-yl)but-2-enamide], the IC50 was under 100 nM in test [1] and under 500 nM in test [2] (setting [3]).
Consider `Nc1ccc(C(=O)N2CC[C@@H](Nc3ncc(Cl)c(-c4c[nH]c5ccccc45)n3)C2)cc1` [Compound 35, (4-aminophenyl)((R)-3-(5-chloro-4-(1H-indol-3-yl)pyrimidin-2-ylamino)pyrrolidin-1-yl)methanone], for which the results for the IC50 in test [1] and in test [2] (setting [3]) were under 100 nM and 500 to 5000 nM, respectively.
The corresponding values for `CC(=O)Nc1ccc(CN2CCC(Nc3ncc(Cl)c(-c4c[nH]c5ccccc45)n3)CC2)cc1` [Compound 47, N-(4-((4-(5-chloro-4-(1H-indol-3-yl)pyrimidin-2-ylamino)piperidin-1-yl)methyl)phenyl)acetamide] are 100 to 1000 nM and 500 to 5000 nM.
The corresponding values for `CN(C/C=C/C(=O)Nc1ccc(C(=O)N2CC[C@@H](Nc3ncc(C#N)c(-c4c[nH]c5ccccc45)n3)C2)cc1)CCO` [Compound 111, (E)-N-(4-((R)-3-(5-cyano-4-(1H-indol-3-yl)pyrimidin-2-ylamino)pyrrolidine-1-carbonyl)phenyl)-4-((2-hydroxyethyl)(methyl)amino)but-2-enamide] are under 100 nM and under 500 nM.
Regarding `C=CC(=O)Nc1ccc(CNC(=O)C2CC(Nc3ncc(Cl)c(-c4c[nH]c5ccccc45)n3)CN(C)C2)cc1` (racemic) [Compound 157, (+/−cis)-N-(4-acrylamidobenzyl)-5-((5-chloro-4-(1H-indol-3-yl)pyrimidin-2-yl)amino)-1-methylpiperidine-3-carboxamide], the IC50 was under 100 nM in test [1] and under 500 nM in test [2] (setting [3]).
Consider `CN(C)C/C=C/C(=O)Nc1ccc(C(=O)N[C@@H]2CC[C@H](Nc3ncc(Cl)c(-c4cc[nH]n4)n3)C2)cc1.CN(C)C/C=C/C(=O)Nc1ccc(C(=O)N[C@H]2CC[C@@H](Nc3ncc(Cl)c(-c4cc[nH]n4)n3)C2)cc1` (mixture of isomers) [Compound 124, N-((1R,3S)-3-((5-chloro-4-(1H-pyrazol-3-yl)pyrimidin-2-yl)amino)cyclopentyl)-4-((E)-4-(dimethylamino)but-2-enamido)benzamide and N-((1S,3R)-3-((5-chloro-4-(1H-pyrazol-3-yl)pyrimidin-2-yl)amino)cyclopentyl)-4-((E)-4-(dimethylamino)but-2-enamido)benzamide], for which the IC50 is over 1000 nM in test [1] and over 5000 nM in test [2] (setting [4]).
In the case of `Nc1ccc(C(=O)N2[C@@H]3CC[C@H]2C[C@@H](Nc2ncc(Cl)c(-c4c[nH]c5ccccc45)n2)C3)cc1` [Compound 302, (4-aminophenyl)((1R,3R,5S)-3-(5-chloro-4-(1H-indol-3-yl)pyrimidin-2-ylamino)-8-aza-bicyclo[3.2.1]octan-8-yl)methanone], the IC50 in test [1] is over 1000 nM; in test [2] (setting [3]), 500 to 5000 nM.
With `N#Cc1cnc(N[C@@H]2CCN(C(=O)c3ccc(NC(=O)/C=C/Cn4ccnc4)cc3)C2)nc1-c1c[nH]c2ccccc12` [Compound 109, (E)-N-(4-((R)-3-(5-cyano-4-(1H-indol-3-yl)pyrimidin-2-ylamino)pyrrolidine-1-carbonyl)phenyl)-4-(1H-imidazol-1-yl)but-2-enamide], the IC50 in test [1] was under 100 nM; in test [2] (Homo sapiens, Jurkat, 72 h), under 500 nM.
`Nc1ccc(CN2CCC(Nc3ncc(Cl)c(-c4c[nH]c5ccccc45)n3)CC2)cc1` [Compound 48, N-(1-(4-aminobenzyl)piperidin-4-yl)-5-chloro-4-(1H-indol-3-yl)pyrimidin-2-amine.HCl]: the IC50 was 100 to 1000 nM in test [1] and 500 to 5000 nM in test [2] (setting [3]).
Consider `C=CC(=O)Nc1ccc(NC(=O)[C@H]2CNCC(Nc3ncc(Cl)c(-c4c[nH]c5ccccc45)n3)C2)cc1` (mixture of isomers) [Compound 154, (+/−trans)-N-(4-acrylamidophenyl)-5-((5-chloro-4-(1H-indol-3-yl)pyrimidin-2-yl)amino)piperidine-3-carboxamide], for which the IC50 was under 100 nM in test [1] and under 500 nM in test [2] (setting [3]).
For `CN(C/C=C/C(=O)Nc1ccc(CN2CCC(Nc3ncc(Cl)c(-c4c[nH]c5ccccc45)n3)CC2)cc1)CC(N)=O` [Compound 146, (E)-4-((2-amino-2-oxoethyl)(methyl)amino)-N-(4-((4-((5-chloro-4-(1H-indol-3-yl)pyrimidin-2-yl)amino)piperidin-1-yl)methyl)phenyl)but-2-enamide] the same measures were under 100 nM and over 5000 nM.
